The structures appear in SMILES notation. A value given as a limit tells only on which side of the number the result lay.

The melting point is the temperature, or range, at which the solid turns liquid.

With `CCOC(=O)N(c1ccc(Cl)cc1)c1ccccc1N=NC(NC(=O)CCl)(C(=O)OCC)C(=O)OCC`, the melting point lay within 80 to 85 °C.

The compound `C=C(C)COc1ccc(C(=O)C=Cc2ccc(N(C)C)cc2)c(O)c1` registered a melting point of 85 to 87 °C.

The compound `COCc1nn(-c2cccc(NC(C)=O)c2)c(=O)n(Cc2ccc(Cl)cc2)c1=O` gave a melting point of 97 °C. Next, `Cc1cc2c(O)nc(O)nc2s1`: more than 300 °C; `Cc1ccc2c(Cc3nc4c(F)c(F)cc(F)c4s3)cn(CC(=O)O)c2c1`: 211 to 213 °C; `COc1cc2c(cc1N)N(C)C(=O)CN(CC#N)C2`: 128 to 132 °C. `NC(=O)N(O)Cc1cscc1Br`: the melting point is 134 to 136 °C. Regarding `Cc1cc(C)c(S(=O)(=O)NC(C)CS)c(C)c1` (centres undefined), the melting point was 74 to 76 °C. As for `Cn1ncc2c1-c1c(Oc3ncccn3)sc(C(=O)O)c1CC2`, the figure is 256 to 258 °C; as for `COc1cc(OC)c(-c2cccs2)cc1/C=C/C(=O)c1ccccc1C(=O)O`, 196 to 198 °C; as for `CN(C)N1C(=O)C(=Cc2nc(C(C)(C)C)c(O)c(C(C)(C)C)n2)SC1=S`, 100 to 105 °C. Turning to `Cc1ccc(S(=O)(=O)N2CC(CO)(CO)C2)cc1`, the melting point lay within 148 to 150 °C. Regarding `Cc1ccc(S(=O)(=O)NCCNC2(c3ccc(Cl)cc3)OC(=O)c3ccccc32)cc1` (centres undefined), the melting point was 177 to 179 °C.

As for `Cn1cncc1C(O)(c1ccc(Cl)cc1)c1ccc2c(c1)C(c1cccc(Cl)c1)SCC(=O)N2` (centres undefined), the melting point was found to be 210 °C. `FC(F)(F)c1ccc2c(c1)C(c1ccccc1)=NCc1nncn1-2` showed a melting point of 258 to 260 °C. As for `Cc1cccc2c(Nc3cc(CO)cc(NC(=O)Oc4ccc(N(CCCl)CCCl)cc4)c3)c3ccccc3nc12`, the figure is 229 to 231 °C. `CSc1ccc(C(=O)C(C)CC(=O)O)cc1` (centres undefined) returned a melting point of 69 to 71 °C. Consider `COc1ccc(CONC(=O)[C@@H](C(C)C)N(Cc2cccnc2)S(=O)(=O)c2ccc(OC)cc2)cc1`, for which the melting point is 45 to 53 °C. `Cc1c(C)c2c(c(C)c1O)CCC(C)(C#Cc1cccs1)O2` (centres undefined) showed a melting point of 133 to 135 °C. Regarding `CSCC[C@H](NC(=O)[C@@H]1CS[C@H](c2ccccc2O)N1C(=O)CCSC(C)=O)C(=O)O`, the melting point is 59 to 64 °C. For the compound `O=C(Nc1ccc(-c2ccccc2)cc1)c1cccc([N+](=O)[O-])c1O`, the melting point was 152 °C.

In turn, `CCC(CC)Oc1nc(C)nc(Nc2c(C)cc(C)cc2C)c1CO` showed a melting point of 121 to 123 °C. On to `CCc1c(Cl)nc(OCc2ccccc2)nc1OCc1ccccc1`, for which the melting point lay in the range of 53 to 54 °C. Next, `Cc1cc(C(=O)NCCc2ccccc2)n(C)n1`: 90.5 to 91.5 °C; `O=C1NCC(CCl)C1(c1ccccc1)c1ccccc1` (centres undefined): 218 to 219 °C.

The compound `CC(C)Cn1c(CN2C(=O)c3ccccc3C2=O)c(-c2ccccc2)c2cc(OCc3ccccc3)ccc2c1=O` showed a melting point of 113 to 114 °C. The compound `COc1ccccc1N1CCN(CCn2c(=O)c3sccc3n(CCC(=O)O)c2=O)CC1` registered a melting point of 215 to 216 °C. As for `COC(=O)c1ccc2c(nc(C)n2C)c1C(=O)OC`, the figure is 205 to 208 °C; as for `CCOC(=O)CCc1ccc(OCc2ccc(OCc3nc(-c4ccccc4)oc3C)cc2)cc1`, 105 to 106 °C.

Regarding `CCC(CC(N)=O)c1cccc2nc3n(c12)CCCN3c1ccc(Cl)cc1Cl` (centres undefined), the melting point was in the range of 132 to 133 °C. In turn, `CC(C)C1CC(=O)Nc2nc(C#N)c3ncccc3c21` (centres undefined) showed a melting point of 220 °C.

`CCCCCCCCCCC[C@H](CC(=O)N[C@@H](CO)C(=O)OCc1ccccc1)OC(=O)CCCCCC` returned a melting point of 46 to 48 °C. Next, `O=C1c2ccccc2SC12CC2`: 70 °C; `CC(C)(C)OC(=O)NCC1CN[C@@H]2CCO[C@H]12` (relative stereo): 59 to 67 °C; `Nc1nc(=O)n(C(=O)OCc2ccccc2)cc1F`: 212 to 215 °C. `CC(C)OC(=O)c1cc(N=C=O)c(F)cc1Cl` yielded a melting point of 41 to 43 °C. `C/C(=N\OCCCOc1ccc(C(=O)O)c(NC(=O)c2ccc(C(F)(F)F)cc2)c1)c1ccccc1` showed a melting point of 174 to 176 °C. Next, `CCS(=O)(=O)c1sc(S(N)(=O)=O)cc1C(C)NC(C)=O` (centres undefined): 213 to 220 °C; `CS(=O)(=O)Nc1cccc(S(F)(F)(F)(F)F)c1`: 80 to 82 °C; `NNC(=O)Cc1cc(C(=O)c2ccc(Br)cc2)sc1-c1ccccc1`: 157 to 161 °C. Next, `Cc1nc2c(S(=O)(=O)Cl)cccc2s1`: 100 to 102 °C; `O=C(O)c1ccc(CCCC2SCC(=O)N2CCC2(O)CCSCC2)cc1` (centres undefined): 157 to 158 °C.

With `CCCCc1nc2c(N)nc3ccccc3c2n1CCCNC(=S)NCCC`, the melting point lay in the range of 144 to 146 °C. Next, `CN1C(=O)N(c2cc(Cl)nc(Cl)c2)C(=O)/C1=C\c1ccc(C#N)cc1`: 230 °C; `Nc1ncnc2c1c(-c1ccccc1Oc1ccccc1)cn2C1CCCC1`: 109 to 110 °C; `CCCSc1ccccc1S(N)(=O)=O`: 58 to 64 °C.

Compound `CC1(C=C(F)F)CN(C(=O)Nc2ccc(OC(F)(F)F)cc2)N=C1c1ccc(Cl)cc1` (centres undefined) displayed a melting point of 142 to 148 °C. As for `CC(C)CCN1C(=O)C2(COc3cc(O)ccc32)c2ccccc21` (centres undefined), the figure is 101 to 103 °C. As for `Cc1cc(-c2nc3cccnn3c2-c2ccnc(NC(=O)c3ccccc3)c2)ccc1F`, the figure is 189 to 190 °C; as for `CC(=O)OC1CSC(Oc2cnccc2-c2cccnc2)C(OC(C)=O)C1OC(C)=O` (centres undefined), 159 °C. As for `Nc1cc(OCc2cccc(Cl)c2)c(C(=O)O)cc1Cl`, the figure is 182 to 184 °C; as for `Cc1cc(-n2c(Cl)cnc2C)cc2ccc(=O)[nH]c12`, 258 to 261 °C.

For `c1ncn2nncc2n1`, the melting point is 249 to 251 °C.

`Cc1ccc2c(c1)OC1(O)c3ccccc3C(=O)C21O` (centres undefined) gave a melting point of 145 to 147 °C. As for `Cc1cc(Oc2cccc(C(F)(F)F)c2)nn1C(=O)Nc1ccc(Cl)cc1`, the figure is 73 to 74 °C; as for `CCc1scc2c1CN(S(=O)(=O)c1ccc(C)cc1)C2`, 117 to 120 °C.

`Cc1cc(C)c2cccc(OCc3c(Cl)ccc(S(=O)(=O)N4CCC[C@H]4C(=O)N4CCN(C(=O)c5ccc(C=NN)cn5)CC4)c3Cl)c2n1` gave a melting point of 150 to 155 °C. Regarding `c1ccc2c(c1)CCn1ccnc1C2=C1CCN(CCn2cccc2)CC1`, the melting point stood at 166 °C.

With `N#Cc1cc(F)c(-n2nc(C(F)(F)F)n(N)c2=O)cc1F`, the melting point was 141 °C. Next, `COc1cc2c(cc1F)OCC21C(=O)N(Cc2ccc(C(F)(F)F)o2)c2ccccc21` (centres undefined): 132 to 134 °C; `COC(=O)/C=C/c1ccc(CCC(C)NCC(O)c2cccc(Cl)c2)cc1` (centres undefined): 87 to 89 °C; `CC(C)OC(=O)c1ncn2c3cccc(Cl)c3c(=O)n(C)c12`: 216 to 220 °C. As for `CCOC(=O)c1c(Cl)nc2cc(Cl)c(OC)cc2c1CCl`, the figure is more than 250 °C; as for `CC(=O)C1CCC2C3CCC4CC(O)C(F)CC4(C)C3C(=O)CC12C` (centres undefined), 174 to 178 °C. Next, `ClC(Cl)=CCOc1cc(Cl)c(OCc2ccc3ccccc3c2)c(Cl)c1`: 86.7 °C. In turn, `COc1ccc(C(=O)N2c3ccccc3C(n3c4ccccc4c4ccccc43)CC2COCc2ccccc2)cc1OC` (centres undefined) came in with a melting point of 203 to 204 °C. As for `CC(=O)OCC(=O)N(c1c(C)ccc2ccccc12)C1CCOC1=O` (centres undefined), the figure is 50 to 70 °C; as for `COc1cc(OCC(=O)O)c(C)cc1SCc1ccc(-c2ccccc2)cc1`, 60 to 62 °C. Next, `CC(C)=NOCc1nc2c(N)nc3ccccc3c2n1CC(C)C`: 194 to 195 °C; `COc1ccc(C(C(Br)c2ccc(F)cc2)C(F)(F)F)cc1` (centres undefined): 73 to 94 °C; `O=C1CC(c2ccccc2)c2cccc(CCN3CCN(c4nsc5ccccc45)CC3)c2N1` (centres undefined): 227 °C.

`CCOCc1nc2c(N)nc(C)cc2n1CCCCNC(=O)C(C)C` registered a melting point of 170 to 172 °C. Regarding `CCCCCC(CC(=O)Nc1cc(C(N)=O)ccc1C(C)(C)C)c1cc(C(N)=O)c(OC)cc1OC` (centres undefined), the melting point lay within 160 to 163 °C. Next, `CCOC(=O)c1c(N2CCN(CCO)CC2)c2cc(Cl)ccc2[nH]c1=O`: 130 to 134 °C. Next, `COc1ccc(OC)c2c1c(C(=O)C(=O)NC1=CC(=O)OC1)cn2Cc1ccc(Cl)cc1`: 212 to 215 °C; `C=C1c2ccccc2C=Cn2c1nnc2S(C)=O` (centres undefined): 140 to 142 °C; `CC(=O)c1cc(Br)no1`: 65 to 66 °C. The compound `CCOc1cc2cc(C(=O)O)sc2cc1OCC` showed a melting point of 243 to 245 °C. As for `CCOC(=O)C1=C(COC(C)=O)Nc2nc(N3CCOCC3)nc(N3CCOCC3)c2C1c1cccc(Cl)c1Cl` (centres undefined), the figure is 161 °C. In turn, `CNC(=S)C1(c2cccnc2)CCCCC1=CCOc1ccccc1` (centres undefined) displayed a melting point of 121 to 122 °C. As for `CCOC(OCC)C(N)=O`, the figure is 47 to 51 °C; as for `CC(C)NC(=O)c1cc2ncn(C)c2c(Cl)c1NC(=O)c1cc(C(F)(F)F)nn1-c1ncccc1Cl`, 150 to 155 °C. As for `COc1ccc(-c2c3cccc(C(F)(F)F)c3nn2CC(C)C)c(OC)c1`, the figure is 111 to 112 °C; as for `NC(=O)c1csc(-c2cccc(N)c2)n1`, 173 to 174 °C. Next, `Nc1nc2ccccc2c2sc(CCc3ccccc3)nc12`: 158 to 159 °C; `C=C1c2[nH]c3ccc(OC)cc3c2CCN1C=O`: 180 to 181 °C; `COc1cc(-c2cc3ccccc3[nH]2)ccc1OS(=O)(=O)c1ccccc1`: 156 °C.

With `CCN1c2ncc(/C=C/c3ccncc3)cc2C(=O)N(C)c2ccc(Cl)nc21`, the melting point was 150 to 152 °C.

`CCc1cccc2c(/C(C)=C/C(=O)O)cc(OC)c(OCOC)c12` gave a melting point of 114 to 115 °C.
